Results from US20260125428A1, “SYNTHETIC TRIPLEX PEPTIDE NUCLEIC ACID-BASED INHIBITORS FOR CANCER THERAPY” (University of Connecticut, priority 2022, published 2026).

Experiments:
U2932 cells = experiment: Viability of U2932 cells, combination of PNAs with HDAC inhibitors and other drugs
Description: FIGS. 9A-D show cell viability after treatment with indicated PNAs. (9A) The viability of U2932 cells after treatment with γPNA1-NLS (8 μM), romidepsin (10 nM) and combination of γPNA1-NLS with romidepsin over 96 hours. (9B) The viability of U2932 cells after treatment with γPNA2-NLS (8 μM), romidepsin (10 nM) and combination of γPNA2-NLS with romidepsin over 96 hours. (9C) Fold change in C-Myc levels after combination of γPNA1-NLS and γPNA2-NLS with romidepsin in comparison to only romidepsin treatment. (9D) Fold change in BCL2 levels after combination of γPNA1-NLS and γPNA2-NLS with romidepsin in comparison to only romidepsin treatment.
FIGS. 10A-F show the viability of U2932 cells after indicated treatment. (10A) Viability of U2932 cells after treatment with γPNA2-NLS […], vorinostat (2.5 μM) and combination of γPNA2-NLS with vorinostat over 96 hours. (10B) The viability of U2932 cells after treatment with γPNA2-NLS (8 μM), valproic acid (2 mM) and combination of γPNA2-NLS with valproic acid over 96 hours. […] (10E) The viability of U2932 cells after treatment with CHOP (cyclophosphamide, vincristine, doxorubicin, prednisone) and combination of γPNA2-NLS with CHOP at different doses.
Cell viability: U2932 and Raji cells were seeded in 96 well plates at 20,000 cells/well. PNAs were added to the media at different concentrations (1, 2, 4, and 8 μM). […] The cell viability was then measured via trypan blue staining on day 1, 2, and 4.

C-Myc oncogene [1] = experiment: Gene expression (RT-PCR) in U2932 cells after combination treatment; assay type: cell-based, human
Description: (§1) Gene expression: The levels of mRNA were measured in different cell lines using real time-polymerase chain reaction (RT-PCR). Both untreated (PBMC, U2932, Raji, Daudi) and PNA treated lymphoma cells were collected at the end of treatment. Total RNA was extracted using Qiagen RNeasy® kit (USA) and concentration was measured by Nanodrop™. cDNA was synthesized using high capacity cDNA reverse transcription kit (Applied Biosystem, USA) following the recommended cycling conditions. Taqman® gene expression assay for C-Myc, EZH2, BCL2, MCL1 and GAPDH were used to amplify the respective mRNAs using the specified cycling conditions in the CFX Real-Time PCR detection system. GAPDH was used as the reference gene and fold change in mRNA expression was obtained by normalizing against the untreated cells or cells treated with HDAC inhibitors.

C-Myc oncogene [2] = experiment: Gene expression (RT-PCR) of C-Myc and downstream targets in U2932 cells; assay type: cell-based, human; conditions: RT-PCR, 24 h, 8 μM
Description: (§2) FIGS. 4A-F show effect of cellular uptake of indicated PNAs. (4A) Expression levels of C-Myc oncogene in U2932 (DLBCL), Raji and Daudi cells (Burkitt's lymphoma) in comparison to the peripheral blood mononuclear cells (PBMC). (4B) Cell viability of U2932 cells after 24 h treatment with indicated PNAs at different doses. (4C) Cell viability of Raji cells after 24 h treatment with indicated PNAs at different doses. (4D) Gene expression levels of C-Myc oncogene and its downstream targets including MCL1 and EZH2 in U2932 cells after 24 h of treatment with γPNA1-NLS, γPNA2-NLS, and ScrγPNA4-NLS at 8 μM. (4E) Gene expression levels of C-Myc oncogene and its downstream targets including BCL2 and EZH2 in Raji cells after 24 h of treatment with γPNA1-NLS, γPNA2-NLS, and ScrγPNA4-NLS at 8 μM. (4F) Gene expression levels of C-Myc in U2932 cells after 24 h treatment with γPNA2-NLS and ScrγPNA4-NLS at indicated doses.
as §1

C-Myc oncogene [3] = experiment: Gene expression (RT-PCR) of C-Myc and downstream targets in Raji cells; assay type: cell-based, human; conditions: 24 h, 8 μM
Description: as §2, §1

U2932 derived xenografts = experiment: Tumor growth and survival study in U2932 derived xenograft mice; assay type: in vivo; conditions: 5 mg/kg systemic on day 1, 4, 7, and 10
Description: FIGS. 7A-C show survival data of mice after systemic administration of indicated PNAs. (7A) Graph representing the tumor volume of U2932 xenografts after systemic treatment with indicated PNAs (n≥4 mice per group). PNAs were administered systemically on day 1, 4, 7, and 10 (n≥4 mice per group). (7B) The survival of U2932 derived xenograft mice after treatment with γPNA2-NLS, γPNA3, and ScrγPNA4-NLS at 5 mg/kg dose in comparison to the control (saline) mice. (7C) Complete blood count analysis of mice from different groups at the end of the study. RBC: red blood cells; WBC: white blood cells; HGB: hemoglobin; PLT: platelets; HCT: hematocrit; MCH: […]. (D) Blood chemistry analysis of mice from different groups at the end of the study. ALT: alanine transaminase; AST: aspartate transaminase; BUN: blood urea nitrogen; LDH: Lactate dehydrogenase. Results are presented as mean±SEM (n≥4).
In vivo studies in xenograft mice model: U2932 derived xenografts were generated by implanting 10 million cells subcutaneously on the lower right flank of the female NSG mice (NOD.Cg-Prkdc^scidIl2rg^tm1Wj1/SzJ, #005557, Jackson Laboratories, USA) of 5-6 weeks. The mice were maintained in the animal care facility at the University of Connecticut following the required Institutional Animal Care and Use Committee guidelines (IACUC). Mice developed palpable tumors after 3-4 weeks of implantation. Tumor dimensions including length (l), breadth (b), and height (h) were measured using a caliper and volume was calculated using the formula for ellipsoid (0.5236×lbh).
Survival study: Mice bearing tumors about 100-150 mm^3 were divided into 4 groups. Mice were treated with either γPNA2-NLS, γPNA3, Scr-γPNA4-NLS, or saline. PNAs were administered at 5 mg/kg dose on day 1, 4, 7, and 10. The change in tumor volume was measured every day. Mice were euthanized when the tumor volume reached 2000 mm^3. Blood was collected via cardiac punter in 1.5 ml tubes containing 0.5 M EDTA. Organs including tumor, liver, kidney, spleen, heart and lung were collected. Tumor fraction and all organs were kept in 10% formalin and submitted for histology. The complete blood count analysis was performed on the collected blood samples using Sysmex CBC analyzer. Plasma was separated from the blood samples and submitted to Antech diagnostic for blood chemistry analysis to quantify the levels of alanine transaminase, lactate dehydrogenase, aspartate transaminase and blood urea nitrogen.

Compound: C/C=C1\NC(=O)[C@H]2CSSCC/C=C/[C@H](CC(=O)N[C@H](C(C)C)C(=O)N2)OC(=O)[C@H](C(C)C)NC1=O [Romidepsin, reference compound]
- cytotoxicity at 0.01 µM (U2932 cells; Homo sapiens, U2932, 96 h, read-out: decrease in viability, alone): 60%

Compound: JJJJTTJJ-OOO-CCTTCCCCACCCTCCCCACCCTC-K-OOO-VKRKKKP (gamma PNA tail clamp; linkers; NLS peptide; misc_feature 1 JJJJTTJJ-linker- is covalently linked to the backbone, wherein J is pseudoisocytosine and the linker is 11-Amino-3,6,9-Trioxaundecanoic Acid (DCHA), represented as -OOO-; misc_feature 23 -K-linker-SEQ ID NO: 5 is covalently linked to the backbone, wherein the linker is 11-Amino-3,6,9-Trioxaundecanoic Acid (DCHA), represented as -OOO-; modified_base 1..23 OTHER; peptide nucleic acid) [γPNA1-NLS]
- combination effect with romidepsin on viability (in words) (U2932 cells; U2932 cells, romidepsin 10 nM, PNA 8 uM): synergistic activity
- decrease in U2932 cell viability, combination with romidepsin (U2932 cells; romidepsin 10 nM pretreatment 24 h, PNA 8 uM, day 4): approximately 80%
- BCL-2 levels, combination with romidepsin in comparison to only romidepsin (C-Myc oncogene [1]; day 4): reduced levels
- decrease in C-Myc levels, combination with romidepsin compared with only romidepsin (C-Myc oncogene [1]; day 4, PNA 8 uM, romidepsin 10 nM): approximately 50%
- change in levels of C-Myc (in words) (C-Myc oncogene [2]): did not observe any change in levels of C-Myc
- levels of downstream targets MCL1 and EZH2 (C-Myc oncogene [2]): no change in their levels
- change in levels of C-Myc (in words) (C-Myc oncogene [3]): did not observe any change in levels of C-Myc
- levels of downstream targets BCL2 and EZH2 (C-Myc oncogene [3]): no change in their levels

Compound: X3TCCCTCCCTCCGTTCTTTTTCCCX4 (JJJTJJJT linker N-term; C-terminal lysine; gammaPNA; misc_feature 1 JJJTJJJT-linker- is covalently linked to the backbone, wherein J is pseudoisocytosine and the linker is 11-Amino-3,6,9-Trioxaundecanoic Acid (DCHA), represented as -OOO-; misc_feature 23 K is covalently linked to the backbone; modified_base 1..23 OTHER; peptide nucleic acid) [γPNA3, site 2 gamma tail clamp PNA without NLS]
- tumor growth in comparison to the control groups (U2932 derived xenografts): significantly reduced tumor growth
- survival of the mice (U2932 derived xenografts; saline 21 days): 23 days
